Entries after “also recorded” stand apart in the source; their conditions may differ. Residues, ends and D or L forms follow the SMILES beside them. *: point of attachment. Cbz = O=C(OCc1ccccc1)*; CH2F = FC*
Key:
[1] = test system: peritoneal cells; assay: NDMP generation by peritoneal cells collected 24 H after TGA treatment, cultured with agonists or inhibitors; type: cell-based, mice; conditions: peritoneal cells 24 H after 3% TGA; for decrease in NDMP generation when compared to cells cultured without inhibitor: ML7 250 μM, Z-VAD-FMK 200 μM, Z-IETD-FMK 30 μM, flow cytometry; for NDMP numbers compared to cells cultured without agent: 8-Br-cAMP 100 μM, H89 20 μM, 6-Bnz-cAMP 100 μM, 8-CPT-2Me-cAMP 100 μM, Y27632 30 μM, PGE2 1 μM, 24 H
Method: Experimental Protocol. A biochemical pathway for NDMP formation was investigated. Specifically, proteins associated with F-actin were investigated, as F-actin rearrangement is a terminal step in apoptosis. The role of myosin light chain kinase (hereinafter “MLC K”) in NDMP generation was initially investigated. Peritoneal cells were isolated from peritoneal lavage 24 H after 1 mL 3% TGA injection. Peritoneal cells were cultured with one of the following agonists or inhibitors overnight in a CO2 incubator: 250 μM ML7, a MLCK inhibitor, (Tocris, Bristol, UK), 200 μM Z-VAD-FMK, a caspase 3 inhibitor, (Tocris), 30 μM Z-IETD-FMK, a caspase 8 inhibitor, (Tocris), or 30 μM Z-LEHD-FMK, or a caspase 9 inhibitor, (Tocris). Cells and MPs were collected 24 H following incubation and analyzed using flow cytometry as previously described.
Statistical comparisons were performed using Student t Test (two groups), or one-way ANOVA with Holm-Sidak post-hoc test (more than two groups) using StatView 3.5 (SAS Institute, Cary, N.C.). The mean and standard error of the mean were calculated in experiments containing multiple data points. A value of p≤0.05 was considered statistically significant.
Experimental Protocol. Elucidation of potential signaling pathways involved in NDMP formation was studied. Peritoneal cells were isolated from peritoneal lavage 24 H after 1 mL 3% TGA injection. […] Cells and MPs were collected 24 H following incubation and analyzed using flow cytometry as previously described.

[2] = test system: Mouse neutrophils; assay: NDMP generation by mouse bone marrow neutrophils treated with TNF-α with or without inhibitors; type: cell-based; conditions: for NDMPs after TNF-α plus caspase 8 inhibitor vs TNF-α alone: WT neutrophils, 25 ng/mL rhTNF-α (TNFr1) or rmTNF-α (TNFr1 and TNFr2)
Source text: Materials and Methods. Male C57BL/6 and TNFr1 KO (stock number: 003242) mice between 6 and 8 weeks of age were obtained from Jackson Labs (Bar Harbor, Me.). Mouse and human TNF-α Recombinant Protein (rmTNF-α and rhTNF-α, respectively) were purchased from Preprotech (Rocky Hill, N.J.). NF-κB inhibitor (BAY 11-7085) and Caspase 8 inhibitor (Z-IETD-FMK) were purchased from R&D systems (Minneapolis, Minn.). The pharmacological agents were solubilized in DMSO (American Bioanalytical, Natick, Mass.). The amount of DMSO was consistent in all samples groups. Neutrophil isolation. Mouse neutrophils from bone marrow were isolated from C57B1/6 mice as previously described. The femurs and tibias were flushed with Hanks' Balanced Salt Solution without calcium & Magnesium (HBSS) (Mediatech, Inc. Manassas, Va., USA). Bone marrow particulate was disaggregated and filtered in a 70 micron filter, then centrifuged at 400×g for 10 min at 23° C. The cells in the pellet were resuspended in HBSS, placed on a 55% Percoll gradient, and centrigued at 100×g for 30 min at 23° C. The pellet was washed once more. The final neutrophil preparation was re-suspended in HBSS. The purity and viability of the neutrophils (90% purity >99% viability, respectively) was determined by flow cytometry. Neutrophil purity was assessed by flow cytometry after cell staining with fluorescently conjugated antibodies to Ly-6G, CD19, CD3 and F4/80 with >99% of the cells negative for F4/80 and CD3. The main cell contaminant in this preparation was due to B cells. Further purification was not conducted by centriguation due to risk of non-specific neutrophil activation or by magnetic beads due to microparticle-sized contaminants introduced by the beads themselves.
Microparticle Generation and Analysis. Isolated neutrophils from bone marrow preparation were plated and cultured for the indicated time at 37° C. with stated treatments. The cell/micropartocle mixture was labeled for Ly-6G and Annexin V without manipulation as previously described. […] Neutrophil derived microparticle numbers were assessed using the neutrophil specific marker, Ly-6G (Clone: 1A8, BD Pharmingen, San Diego, Calif., United States); and Annexin V (BD Pharmingen). […]
Statistical Analysis. […] The mean and standard error of the mean were calculated in experiments containing multiple data points. […]
Using flow cytometry, forward- and side-channels were set to analyze particles using 0.5-, 0.9-, and 3.0-μm latex beads for calibration as previously described (FIG. 22A). […] To enumerate NDMPs, neutrophil and NDMP mixture were analyzed with the neutrophil-specific marker, Ly6G, and the apoptosis marker, annexin V. Vesicles within the 0.3-1.0 μm range that expressed both Ly6G and phosphatidylserine were identified as NDMPs. […]

[3] = test system: C57BL/6 mice; assay: Intraperitoneal treatment of mice with TGA, LPS or PepG: peritoneal neutrophil recruitment and NDMP generation; type: in vivo; conditions: for neutrophil recruitment and NDMP generation/accumulation in the peritoneum: i.p. injection, peritoneal lavage 24 H after 3% TGA; for # NDMPs: peritoneal NDMPs after treatment; for # NDMPs / # Neuts: 3% TGA 1 mL i.p., PepG 1 mg i.p., LPS 100 μg i.p., CLP 75% ligation/23 gauge puncture; for # Neuts: peritoneal neutrophils after treatment
Method: Low-endotoxin NDMPs were generated and used to assess host response during sepsis. More specifically, mice were treated with intraperitoneal injections of 3% thioglycolate (hereinafter, “TGA”), LPS, or petidylglycan (hereinafter “PepG”). Peritoneal neutrophil recruitment, NDMPs, and endotoxin associated with NDMPs were quantified.
Experimental Protocol. The ability of TGA to generate microparticles in vivo was investigated. Male C57BL/6 mice between 6 and 8 weeks of age (about 20 to 28 g) were injected in the peritoneum with 1 mL 3% thioglycolate (Sigma, St. Louis, Mo.) or with vehicle. Peritoneal lavage was performed 24 H after injection. Peritoneal cells were pelleted after a 10-minute 450×g centrifugation. The supernatant was then centrifuged for 10 minutes at 9,900×g to remove platelets. The platelet-free supernatant was centrifuged for 20 minutes at 16,000×g in order to pellet MPs. The MP pellet was resuspended in 500 μL sterile PBS and centrifuged for 20 minutes at 16,000×g. The MP pellet was then resuspended in 100 μL sterile PBS for analysis.
Analysis of cell surface antigen expression was performed on peritoneal lavage fluid. Flow cytometry data acquisition and analysis were performed on an LSR II using FACS Diva software (BD Biosciences). Antibodies used included: Ly-6G (Clone: 1A8, BioLegend), LY-6C (Clone: AL-21, BD Biosciences), CD11b (Clone: M1/70, BioLegend), Ter-119 (Clone: Ter-119, BioLegend), CD41 (Clone: MWReg30, BioLegend), CD105 (Clone: MJ7/18, BioLegend), Annexin V (BioLegend), and counting beads (Invitrogen, Grand Island, N.Y.). As shown in FIG. 19(A), forward and side scatter flow cytometry were initially performed on the lavage to both characterize and enumerate microparticles. A gate was created using 0.3-1.1 μm beads to isolate the MPs in the sample.
Vehicle mice and TGA-treated mice were stained with neutrophil specific Ly6G and annexinV antibodies. Total NDMPs from TGA-treated mice and vehicle mice were then enumerated.

[4] = test system: peritoneal cells isolated from septic mice; assay: In vitro NDMP generation by peritoneal cells isolated from septic (CLP) mice; type: cell-based
Method: Experimental Protocol. Peritoneal lavage cells from mice made septic by cecal ligation and puncture were isolated. The cells were then incubated with or without lipopolysaccharide (hereinafter “LPS”, 100 ng/mL) for […]. MPs from these cultures were then isolated, quantified by bicinchoninic acid assay (hereinafter, “BCA”), and analyzed by fluorescence-activated cell sorting (hereinafter “FACS”).
Experimental Protocol. Peritoneal cells were isolated from septic mice 24 H after CLP. The isolated peritoneal cells were incubated with PBS or 100 ng/mL LPS for 24 H. Samples were analyzed using LSR II flow cytometer and FACS Diva software (BD Biosciences). As shown in FIG. 17(A), latex beads of a predetermined size were used to set the forward and side scatter voltages to best distinguish particles ranging from […].
Experimental Protocol. Signaling intermediates required for NDMP formation are largely unexplored. cAMP was targeted as a potential signaling mechanism involved in NDMP formation. Peritoneal cells were isolated 24 H after CLP surgeries. […] After 24 H, NDMPs were enumerated and characterized by flow cytometry.

`Cl.O=S(=O)(c1cccc2c(I)cccc12)N1CCCNCC1` [ML7] was tested, and the “decrease in NDMP generation when compared to cells cultured without inhibitor” value (shortened to “decrease … to cells cultured without inhibitor”) ([1]; 24 H culture) was 75%.

`O=C(Nc1ncnc2c1ncn2[C@@H]1O[C@@H]2COP(=O)(O)OC2C1O)c1ccccc1` (stereo in doubt) [6-Bnz-cAMP] was tested, and the “NDMP numbers compared to cells cultured without agent” value [1] was “inhibited NDMP formation”.

For `CC(C)(C)c1ccc(S(=O)(=O)/C=C/C#N)cc1` [BAY 11-7085], the “NDMP generation after activation of TNFr1, TNFr2 or both” value ([2]; WT or TNFr1−/− neutrophils, 25 ng/mL rmTNF-α or rhTNF-α, 20 μM BAY 11-7085, 1 h) was “completely abrogates NDMP generation”.

For peptidoglycan [PepG], the “neutrophil recruitment and NDMP generation/accumulation in the peritoneum” value [3] was “resulted in neutrophil recruitment and NDMP generation”, the “# NDMPs” value [3] was 3.0 ×10^3 and the “# Neuts” value [3] was 2.0 ×10^6.

`COC(=O)C[C@H](NC(=O)[C@H](C)NC(=O)[C@@H](NC(=O)OCc1ccccc1)C(C)C)C(=O)CF` [Z-VAD-FMK] (Cbz-Val-Ala-Asp(OMe)-CH2F) was tested, and the “decrease … to cells cultured without inhibitor” value ([1]; 24 H culture) was 37%.

With `CO[C@@H]1[C@@H]2OP(=O)(O)OC[C@H]2O[C@H]1n1c(Sc2ccc(Cl)cc2)nc2c(N)ncnc21` [EPAC, 8-CPT-2Me-cAMP] the “NDMP numbers compared to cells cultured without agent” value [1] was “did not affect NDMP numbers”.

With `CCCCC[C@H](O)/C=C/[C@H]1[C@H](O)CC(=O)[C@@H]1C/C=C\CCCC(=O)O` [PGE2, Prostaglandin E2] the “NDMP numbers compared to cells cultured without agent” value [1] was “decrease in the total number of NDMPs”.

lipopolysaccharide [LPS] was tested, and the “neutrophil recruitment and NDMP generation/accumulation in the peritoneum” value [3] was “resulted in neutrophil recruitment and NDMP generation”, the “# NDMPs” value [3] was 2.4 ×10^3 and the “# Neuts” value [3] was 0.16 ×10^6. The “NDMP formation from peritoneal cells” value ([4]; LPS 100 ng/mL vs PBS, 24 H, cells isolated 24 H after CLP) was “enhance NDMP formation” and the “increase in NDMPs from LPS-treated cells compared to spontaneous NDMP generation” value ([4]; LPS 100 ng/mL, 18 H, peritoneal lavage cells of CLP mice) was roughly 60%.

thioglycolate [3% TGA] was tested, and the “neutrophil recruitment and NDMP generation/accumulation in the peritoneum” value [3] was “greatest number of low endotoxin NDMPs”, the “neutrophil recruitment and NDMP generation/accumulation in the peritoneum” value ([3]; listed as TGA) was “resulted in neutrophil recruitment and NDMP generation; also recorded: robust accumulation of NDMPs” and the “# NDMPs” value [3] was 35.1 ×10^3. The “# Neuts” value [3] was 6.9 ×10^6.

For `COC(=O)CC[C@H](NC(=O)[C@H](CC(C)C)NC(=O)OCc1ccccc1)C(=O)N[C@@H](Cc1cnc[nH]1)C(=O)N[C@@H](CC(=O)OC)C(=O)CF` [Z-LEHD-FMK] (Cbz-LE(OMe)HD(OMe)-CH2F), the “NDMP generation compared to cells cultured without inhibitor” value ([1]; Z-LEHD-FMK 30 μM, 24 H culture) was “no significant difference”.

With `C[C@@H](N)[C@H]1CC[C@H](C(=O)Nc2ccncc2)CC1` [Y27632] the “NDMP numbers compared to cells cultured without agent” value [1] was “decrease in the total number of NDMPs”.

In the case of `Cl.Cl.O=S(=O)(NCCNC/C=C/c1ccc(Br)cc1)c1cccc2cnccc12` [H89], the “NDMP numbers compared to cells cultured without agent” value [1] was “did not”.

In the case of `CC[C@H](C)[C@H](NC(=O)OCc1ccccc1)C(=O)N[C@@H](CCC(=O)OC)C(=O)N[C@H](C(=O)N[C@@H](CC(=O)OC)C(=O)CF)[C@@H](C)O` [Z-IETD-FMK] (Cbz-IE(OMe)TD(OMe)-CH2F), the “decrease … to cells cultured without inhibitor” value ([1]; 24 H culture) was 37%, the “NDMPs after TNF-α plus caspase 8 inhibitor vs TNF-α alone” value ([2]; 30 μM Z-IETD-FMK, 1 h, listed as Caspase 8 inhibitor) was “sharply decreased but not entirely eliminated” and the “NDMPs after TNF-α plus caspase 8 inhibitor vs TNF-α alone” value ([2]; 30 μM Z-IETD-FMK, 1 h, listed as caspase 8 inhibitor) was “significant decrease in NDMPs”. For the same compound, the “microparticle generation after TNF-α plus caspase 8 inhibitor, only TNFr2 activated” value ([2]; neutrophils from TNFr1−/− mice, 25 ng/mL rmTNF-α, 30 μM Z-IETD-FMK, 1 h, listed as Caspase 8 inhibitor) was “did not alter NDMP numbers; also recorded: no decrease in microparticle generation”.

From patent US10073097B2, “Diagnostic assays and methods of treating pneumonia, sepsis and systemic inflammatory response syndrome” (priority 2012, dated 2018)
